Reference: patent EP0591583B1, “Benzo (f) quinolinones as 5-alpha-reductase inhibitors” (ELI LILLY AND COMPANY, priority 1992, dated 1994)

These molecules were tested against T1, 5α-reductase (Homo sapiens, UniProt P18405) (assay: 5α-Reductase activity in Hs68 human genital skin fibroblasts (conversion of labeled testosterone, TLC analysis)). Settings: Hs68, test compound 0.316 µM; Hs68 cells; substrate testosterone 12 µM; incubated four hours.
T1 construct: host or cells: Hs68 human genital skin fibroblasts
T1 sequence (P18405 1-259): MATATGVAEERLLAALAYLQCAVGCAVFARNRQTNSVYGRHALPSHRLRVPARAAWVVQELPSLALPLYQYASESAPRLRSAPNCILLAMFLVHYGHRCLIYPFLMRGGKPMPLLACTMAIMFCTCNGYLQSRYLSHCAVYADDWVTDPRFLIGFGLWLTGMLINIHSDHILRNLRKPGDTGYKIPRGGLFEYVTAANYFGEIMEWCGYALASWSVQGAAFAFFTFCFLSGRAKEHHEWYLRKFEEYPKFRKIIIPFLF
Assay type: cell-based
Procedure: Cell Culture: 5α-Reductase activity was measured using Hs68 human genital skin fibroblasts which were originally purchased from the American Type Culture Collection (Rockville, MD). The cells were grown in Dulbecco's Modified Eagle's Medium (DMEM) plus 10% stripped fetal bovine serum which was supplemented with amphotericin B ([…]) and gentamicin ([…]) (GIBCO, Grand Island, NY). The serum was stripped of endogenous steroids by incubation with dextran-coated charcoal prior to its addition to the media. The cells were maintained at 37°C in an atmosphere of 95% air, 5% CO2 and were passaged every 7-10 days by exposure to a trypsin-EDTA solution (0.025% trypsin, 0.265 mM EDTA). Prior to the assay the Hs68 cells were harvested and plated in Falcon 6-well plates (Becton Dickinson Labware, Lincoln Park, NJ) at a density of 6 x 10^4 cells per well. The cells were allowed to grow for 4-5 days or until they reached approximately 80% confluence.
Assay Method I: The substrate was prepared by dissolving unlabeled testosterone (Sigma Chemical Co., St. Louis, MO) in absolute ethanol followed by the addition of [7-^3H (N)]-testosterone (23.3 Ci/mmole, New England Nuclear, Boston, MA). The steroid solution was taken to dryness under a stream of nitrogen and then reconstituted in media.
Assay Method II: The substrate used for this method was [^14C]-testosterone (50 mCi/mmol) (New England Nuclear, Boston, MA). An aliquot of the substrate was taken to dryness under a stream of nitrogen. After the addition of 30 µl of ethanol, the testosterone was dissolved in an appropriate volume of media.
Sample Preparation: The test compounds were brought up in absolute ethanol in order to achieve the desired concentration. Subsequent dilutions of the test compounds with media were performed by the Biomek 1000 Automated Laboratory Workstation (Beckman Instruments, Palo Alto, CA). The existing media in the sample wells was aspirated and replaced with fresh media. Test compound was then added to the wells followed by the addition of 0.5 ml of substrate. The volume of the incubation mixture was maintained at 2.0 ml. The final substrate concentration was 12 µM. The concentration of the test compounds ranged from 0.001-150 µM. An additional three wells (background) containing media and substrate but no cells were also included to account for the non-enzymatic metabolism of the substrate. The plates were returned to the incubator and incubated for four hours.
At the end of the incubation the media was collected and transferred to an extraction tube containing 5 ml of toluene-ethanol (9:1), to which has been added 20-250 µg each of unlabeled carrier steroids (estriol, estradiol, estrone, 5α-androstan-3α,17β-diol, 5α-androstan-3β,17β-diol, 4-androstene-3,17-dione, 5α-androstan-3,17-dione, testosterone, and 5α-dihydrotestosterone) (Steraloids, Inc., Wilton, NH). In the case of Assay Method I the extraction tube also contained 1,000 and 10,000 dpm of [4-^14C]-dihydrotestosterone (50-60 mCi/mmol) and [4-^14C]-testosterone (50 mCi/mmol) (New England Nuclear, Boston, MA), respectively. The [^14C]-steroids were included as recovery standards to quantify procedural losses. A small amount of NaCl was also added to the extraction tubes to prevent foaming. The samples were vortexed for approximately 30 seconds and then centrifuged for 10 minutes at 500 x g. The organic phase was collected and the samples taken to dryness, redissolved in dichloromethane-methanol (9:1) and were analyzed by thin layer chromatography using one of the methods described below.
Chromatography Method I (two-dimensional): The extracted samples were appled to silica gel 60F254, 0.25 mm thick, thin layer chromatography plates (EM Science, Cincinnati, OH). The plates were developed in the first dimension with a solvent system containing dichloromethane-ethyl acetate-methanol-acetic acid (160:38:1.5:0.5, Mallinckrodt Inc., Paris, KY).
In the case of CN1C(=O)CC[C@@H]2c3ccc(Cl)cc3CC[C@H]21 [Example 64, (-)-(4aR)-(10bR)-8-chloro-4-methyl-1,2,3,4,4a,5,6, lOb-octahydrobenzo[f]quinolin-3-one], the inhibition at 0.316 µM is reported as 91.5%.

Same assay, conditions: Hs68, test compound 0.316 µM; Hs68 cells; substrate testosterone 12 µM; incubated four hours; read-out: % Inhibition
CN1C(=O)CC[C@@H]2c3cc([N+](=O)[O-])ccc3CC[C@H]21 (racemic) [Example 47, trans-dl-9-nitro-4-methyl-1,2,3,4,4a,5,6,10b-octahydrobenzo[f]quinolin-3-one] showed an inhibition at 0.316 µM of 49.7%. With CN1C(=O)CC[C@@H]2c3cc(N)ccc3CC[C@H]21 (racemic) [Example 48, trans-dl-9-amino-4-methyl-1,2,3,4,4a,5,6,10b-octahydrobenzo[f]quinolin-3-one] the inhibition at 0.316 µM was 4.36%. Molecule CN1C(=O)CC[C@@H]2c3cc(Cl)ccc3CC[C@H]21 (racemic) [Example 49, trans-dl-9-chloro-4-methyl-1,2,3,4,4a,5,6,10b-octahydrobenzo[f]guinolin-3-one] has an inhibition at 0.316 µM of 65.7%. With O=C1C=C[C@@H]2c3ccc(Cl)cc3CC[C@H]2N1 (racemic) [Example 50A, trans-dl-8-chloro-3,4,4a,5,6,10b-hexahydrobenzo[f]quinolin-3-one] the inhibition at 0.316 µM was 83.3%. For O=C1CC=C2c3ccc(Cl)cc3CCC2N1 (racemic) [Example 50B, dl-8-chloro-2,3,4,4a,5,6-hexahydrobenzo[f]quinolin-3-one], the inhibition at 0.316 µM was 84%. With CN1C(=O)CC=C2c3ccc(Cl)cc3CCC21 (racemic) [Example 53, dl-8-chloro-4-methyl-2,3,4,4a,5,6-hexahydrobenzo[f]quinolin-3-one] the inhibition at 0.316 µM was 74.8%. C[C@@H]1C[C@@H]2c3ccc(Cl)cc3C=C[C@H]2N(C)C1=O (racemic) [Example 54, trans-dl-8-chloro-2-a-methyl-4-methyl-1,2,3,4,4a,10b-hexahydrobenzo[f]quinolin-3-one] showed an inhibition at 0.316 µM of 73.8%. For CN1C(=O)CC[C@@H]2c3ccc(CCC(=O)NC(C)(C)C)cc3CC[C@H]21 (racemic) [Example 55, trans-dl-8-t-butylaminocarbonylethanediyl-4-methyl-1,2,3,4,4a,5,6,10b-octahydrobenzo[f]quinolin-3-one], the inhibition at 0.316 µM was 17.3%. For CN1C(=O)CC[C@@H]2c3ccc(-c4ccccc4)cc3CC[C@H]21 (racemic) [Example 56, trans-dl-8-phenyl-4-methyl-1,2,3,4,4a,5,6,10b-octahydrobenzo[f]quinolin-3-one], the inhibition at 0.316 µM was 74.8%. Molecule C=Cc1ccc2c(c1)CC[C@@H]1[C@@H]2CCC(=O)N1C (racemic) [Example 57, trans-dl-8-vinyl-4-methyl-1,2,3,4,4a,5,6,10b-octahydrobenzo[f]quinolin-3-one] has an inhibition at 0.316 µM of 66.6%. CCOC(=O)c1ccc2c(c1)CC[C@@H]1[C@@H]2CCC(=O)N1C (racemic) [Example 58, trans-dl-8-ethoxycarbonyl-4-methyl-1,2,3,4,4a,5,6,10b-octahydrobenzo[f]quinolin-3-one] gave an inhibition at 0.316 µM of 65.7%. CCN1C(=O)CC[C@@]2(C)c3ccccc3CC[C@H]12 (relative stereo) [Example 42, trans-4-ethyl-10b-methyl-1,2,3,4,4a,5,6,10b-octahydrobenzo[f]quinolin-3-one] showed an inhibition at 0.316 µM of 10.9%. CCCCN1C(=O)CC[C@@]2(C)c3ccccc3CC[C@H]12 (relative stereo) [Example 43, trans-4-n-butyl-10b-methyl-1,2,3,4,4a,5,6,10b-octahydrobenzo[f]quinolin-3-one] was tested, and the inhibition at 0.316 µM was 11.9%. Work on CN1C(=O)CC[C@]2(C)c3ccc(Cl)cc3CC[C@@H]12 [Example 59, (R) (+)-trans-4-methyl-8-chloro-10b-methyl-1,2,3,4,4a,5,6,10b-octahydrobenzo[f]quinolin-3-one] yielded an inhibition at 0.316 µM of 71.9%. With C[C@]12C=CC(=O)N[C@@H]1CCc1cc(Cl)ccc12 [Example 61, (R) (+)-trans-8-chloro-10b-methyl-3,4,4a,5,6,10b-hexahydrobenzo[f]quinolin-3-one] the inhibition at 0.316 µM was 61.5%. Work on CN1C(=O)CC[C@H]2c3ccc(Cl)cc3CC[C@@H]21 [Example 65, (+)-(4aS)-(10bS)-8-chloro-4-(methyl)-1,2,3,4,4a,5,6,10b-octahydrobenzo[f]quinolin-3-one] yielded an inhibition at 0.316 µM of 95.6%.

Same assay, conditions: Hs68, test compound 1.00 µM; Hs68 cells; substrate testosterone 12 µM; incubated four hours
CN1C(=O)CCC2(C)c3ccc(Cl)cc3CCC12 (racemic) [Example 34, trans-dl-8-chloro-4,10b-di-methyl-1,2,3,4,4a,5,6,10b-octahydrobenzo[f]-quinolin-3-one] was tested, and the inhibition at 1 µM was 94.2%.

Same assay, conditions: Hs68, test compound 1.00 µM; Hs68 cells; substrate testosterone 12 µM; incubated four hours; read-out: % Inhibition
With CN1C(=O)CCC2(C)c3ccc(F)cc3CCC12 (racemic) [Example 32, trans-dl-8-fluoro-4,10b-dimethyl-1,2,3,4,4a,5,6,10b-octahydrobenzo[f]quinolin-3-one] the inhibition at 1 µM was 81.6%. Molecule C[C@]12CCC(=O)N[C@@H]1CCc1cc(Cl)ccc12 (racemic) [Example 38, trans-dl-8-chloro-10b-methyl-1,2,3,4,4a,5,6,10b-octahydrobenzo[f]quinolin-3-one] has an inhibition at 1 µM of 34%. With CN1C(=O)C=C[C@@H]2c3ccc(Br)cc3CC[C@H]21 (racemic) [Example 51, trans-dl-8-bromo-4-methyl-3,4,4a,5,6,10b-hexahydrobenzo[f]quinolin-3-one] the inhibition at 1 µM was 95.1%. Work on CN1C(=O)C=C[C@@H]2c3ccc(Cl)cc3CC[C@H]21 (racemic) [Example 52, trans-dl-8-chloro-4-methyl-3,4,4a,5,6,10b-hexahydrobenzo[f]quinolin-3-one] yielded an inhibition at 1 µM of 71.8%.

Same assay, conditions: Hs68, test compound 3.16 µM; Hs68 cells; substrate testosterone 12 µM; incubated four hours
In the case of CN1C(=O)CC[C@@]2(C)c3ccccc3CC[C@H]12 (stereo in doubt) [Example 45, trans-4-methyl-10b-methyl-1,2,3,4,4a,5,6,10b-octahydrobenzo[f]quinolin-3-one], the inhibition at 3.16 µM is reported as 72.2%.

Same assay, conditions: Hs68, test compound 150.00 µM; Hs68 cells; substrate testosterone 12 µM; incubated four hours
In the case of C[C@]12CCC(=O)N[C@@H]1CCc1ccccc12 (racemic) [Example 36, trans-dl-10b-methyl-1,2,3,4,4a,5,6,10b-octahydrobenzo[f]quinolin-3-one], the inhibition at 150 µM is reported as 43.9%.

Same assay, conditions: test compound 0.316 µM; Hs68 cells; substrate testosterone 12 µM; incubated four hours; read-out: % Inhibition
Work on COc1ccc(CN2C(=O)CC[C@]3(C)c4ccc(Cl)cc4CC[C@@H]23)cc1 [Example 44] yielded an inhibition at 0.316 µM of 5.7%.

Same assay, conditions: test compound 1.00 µM; Hs68 cells; substrate testosterone 12 µM; incubated four hours; read-out: % Inhibition
For CN1C(=O)CC[C@]2(C)c3ccccc3CC[C@@H]12 (stereo in doubt) [Example 37, trans-dl-4,10b-dimethyl-1,2,3,4,4a,5,6,10b-octahydrobenzo[f]quinolin-3-one], the inhibition at 1 µM was 40%.

Same assay, conditions: test compound 15.00 µM; Hs68 cells; substrate testosterone 12 µM; incubated four hours
O=C1CC[C@@H]2c3cc([N+](=O)[O-])ccc3CC[C@H]2N1 (racemic) [Example 46, trans-dl-9-nitro-1,2,3,4,4a,5,6,10b-octahydrobenzo[f]quinolin-3-one] gave an inhibition at 15 µM of 69.9%.
